This note sets out measurements from patent US3966734A, “Method for the purification of 6-methoxy-1-phenazinol 5,10-dioxide” (Hoffmann-La Roche Inc., priority 1975, dated 1976).

Series [1] concerns gram positive and gram negative bacteria, fungi, protozoa and helminths. Kind of series: Anti-microbial activity in in vitro tests and in vivo topical infections (general statement).
A short description of another series: Solubility in water. It is filed as physicochemical.
Another series relates to S. agalactiae. Kind of series: In vivo anti-microbial activity against S. agalactiae. How it is done:
(§1) For example, the anti-microbial activity of calcium myxin dihydrate, prepared by the method of this invention, is evaluated and compared to that of myxin itself both in vivo against 4 strains of bacteria and in vitro against yeast and fungus infections.

The test system of the next series is S. aureus. The series is described as follows: In vivo anti-microbial activity against S. aureus. The method, then:
as §1

A further series relates to E. coli. Kind of series: In vivo anti-microbial activity against E. coli. How it is done: as §1
The next series relates to P. aeruginosa. The series is described as follows: In vivo anti-microbial activity against P. aeruginosa. How it is done:
as §1

Another series concerns C. albicans. The series is described as follows: In vitro anti-microbial activity (minimum inhibitory concentration) against C. albicans. It is filed as cell-based. The method, then: as §1
The next series concerns M. canis. Kind of series: In vitro anti-microbial activity (minimum inhibitory concentration) against M. canis. The class given is cell-based. The method, then:
as §1

`COc1cccc2c1[n+]([O-])c1cccc(O)c1[n+]2[O-]` [Myxin, 6-methoxy-1-phenazinol 5,10-dioxide]: the anti-microbial activity result in series [1] was “high degree and wide spectrum of anti-microbial activity”. Moreover, in the series “Solubility in water”, the solubility in water entry is “very slightly soluble in water”.
Regarding “6-methoxy-1-phenazinol 5,10-dioxide, calcium dihydrate complex [Calcium Myxin Dihydrate]”, the “ED50' (in vivo)” value was less than 4 µg/mL in the series with S. agalactiae, less than 20 µg/mL in the series on S. aureus, 60 µg/mL with E. coli and 20 µg/mL with P. aeruginosa. Besides, the “Minimum Inhibitory Concentration, cidal” value with C. albicans (cidal) and in the series with M. canis (cidal) was less than 0.8 µg/mL in each case. The “Minimum Inhibitory Concentration, static” value in the series on C. albicans (static) and in the series with M. canis (static) was less than 0.8 µg/mL each time.
